From patent EP4796530A1 (Biocells (Beijing) Biotech Co., Ltd., priority 2023, dated 2025)

Tests used:
NLRP3 [1] = molecular target: T1, NLRP3 (Mus musculus, UniProt Q8R4B8); assay: Inhibition curves (IC50) of canonical NLRP3 activation in J774A.1 cells, IL-1β release; format: cell-based; design: The mouse macrophage cell line J774A.1 was used, and LPS was used as the first signal; host or cells: J774A.1 mouse monocyte-macrophage cell line; details: J774A.1 cell LPS+Nig activation model
Protocol: (§1) J774A.1 cells were plated in a 48-well plate at a density of 1.0×10^6 cells/mL, with 300 µL per well. Subsequently, NLRP3 was activated by LPS+ATP or LPS+Nig. […] ATP was purchased from Sigma, Cat. No.: L2654. Nig was purchased from Shanghai Yuanye Bio-Technology Co., Ltd., Cat. No.: S45490.
Experimental groups: a negative control group, an LPS-alone incubation control group, an LPS+ATP/Nig positive control group, and an example compound experimental group with different concentrations.
After the plated J774A.1 cells adhering to the plate, the culture medium was replaced. For all the groups except the negative control group, the culture medium was completely replaced with cell culture medium containing 1 µg/mL LPS. The negative control group received cell culture medium. Then, all the groups were incubated overnight. 18 h later, the culture medium was replaced again. The culture medium of the example compound experimental group was completely replaced with culture medium containing different concentrations of compounds; while the negative control group, the LPS-alone incubation control group, and the LPS+ATP/Nig positive control group received cell culture medium. 1 h later, the culture mediums of the LPS+ATP/Nig positive control group and the example compound experimental group with different concentrations were completely replaced with cell culture medium containing 5 mM ATP or 10 µM Nig. 1 h later, the cell supernatants were collected for IL-1β detection.
(§2) Therefore, the relative change in the amount of IL-1β release may directly reflect NLRP3 inhibitory effect. The inhibitory effect of the compounds varies with different concentrations, and based on this, an inhibition curve can be constructed, and the inhibitory effects of the compounds were assessed by IC50.

NLRP3 [2] = molecular target: T1, NLRP3; assay: Inhibition of canonical NLRP3 activation (LPS+ATP/Nig) in J774A.1 cells, IL-1β release by ELISA, single concentration; format: cell-based; design: The mouse macrophage cell line J774A.1 was used, and LPS was used as the first signal; host or cells: J774A.1 mouse monocyte-macrophage cell line; details: J774.A1, 1 µM compound, LPS + 5 mM ATP or 10 µM Nig, compared with the positive control, read-out: inhibition of IL-1β release
Protocol: as §1, with “using LPS+5 mM ATP (adenosine triphosphate)” for “by LPS+ATP”, “10 µM Nig (nigericin).” for “LPS+Nig.”
Experimental groups: a negative control group, an LPS-alone incubation control group, an LPS+ATP or +Nig positive control group, and an example compound experimental group.
After the plated J774A.1 cells adhering to the plate, the culture medium was replaced. For all the groups except the negative control group, the culture medium was completely replaced with cell culture medium containing 1 µg/mL LPS. The negative control group received cell culture medium. Then, all the groups were incubated overnight. 18 h later, the culture medium was replaced again. The culture medium of the example compound experimental group was completely replaced with cell culture medium containing the compounds; while the negative control group, the LPS-alone incubation control group, and the LPS+ATP/Nig positive control group received cell culture medium. 1 h later, the culture mediums of the LPS+ATP/Nig positive control group and the example compound experimental group were completely replaced with cell culture medium containing 5 mM ATP or 10 µM Nig. 1 h later, the cell supernatants were collected for IL-1β detection.
Therefore, the relative change in the amount of IL-1β release may directly reflect NLRP3 inhibitory effect.

NLRP3 [3] = molecular target: T1, NLRP3; assay: Inhibition of APOE peptide-induced NLRP3 activation in J774A.1 cells, IL-1β release; format: cell-based; design: The mouse macrophage cell line J774A.1 was used, and LPS was used as the first signal; host or cells: J774A.1 mouse monocyte-macrophage cell line; details: J774.A1, 10 µM compound, 30 µg/mL APOE peptide
Protocol: J774A.1 cells were plated in a 48-well plate at a density of 1.0×10^6 cells/mL, with 300 µL per well. Subsequently, NLRP3 was activated by APOE peptide. The cell culture medium comprises: DMEM (brand: Gibco, Cat. No.: C12430500) + 10% fetal bovine serum (brand: Gibco, Cat. No.: 10099-141) + 1% sodium pyruvate (brand: Gibco, Cat. No.: 11360-070) + 1% penicillin-streptomycin solution (brand: Solarbio, Cat. No.: P1400). The J774A.1 mouse monocyte-macrophage cell line was purchased from the Cell Resource Center of the Institute of Basic Medical Sciences of Chinese Academy of Medical Sciences (Resource No. 1101MOU-PUMC000222). APOE2/3 peptide 1-151 was obtained through recombinant protein expression and purification by Biocells (Beijing) Biotech Co., Ltd. The procedures were as follows: the sequence (SEQ ID NO: 1) shown below was inserted into the pET-28A plasmid and transformed into BL-21(DE3) expression strain; the expression of target protein was induced with IPTG at a low temperature; after collecting the bacteria via centrifugation, ultrasonic disruption was performed; and after centrifugation, the supernatant was purified by nickel ion affinity chromatography (AKTA pure), and then the product was concentrated by ultrafiltration and identified by BCA+protein electrophoresis. Sequence: [formula]
Experimental groups: a negative control group, an APOE treatment control group, and an example compound experimental group.
After the plated J774A.1 cells adhering to the plate, the culture medium was replaced. The culture medium of the APOE treatment control group was replaced with cell culture medium containing 30 µg/mL APOE peptide, the culture medium of the example compound experimental group was replaced with culture medium containing 30 µg/mL APOE peptide combined with the compounds, and the negative control group received cell culture medium. Then, all the groups were incubated overnight. 18 h later, the cell supernatants were collected for IL-1β detection.
Activation of NLRP3 by APOE peptide will result in release of mature IL-1β, and the release can be inhibited by NLRP3 inhibitors. Therefore, the relative change in the amount of IL-1β release may directly reflect NLRP3 inhibitory effect.
In this experimental example, effective inhibition refers to a reduction of 70% or more in the release amount, compared with the release amount of the positive control minus the negative control.

[4] = Rat plasma pharmacokinetics after intravenous administration (LC-MS); format: in vivo; details: SD rats, intravenous 2.5 mg/kg
Protocol: SD rats were administered intravenously, at a dosage concentration of 2.5 mg/kg in each group. Blood was collected at the time points of 1 min, 30 min, 1 h, 2 h, 4 h, 6 h, and 24 h. The collected blood was centrifuged at 3000 rpm for 10 min at 4 °C to obtain plasma. Acetonitrile was added at a 1:3 volume ratio of plasma: acetonitrile to precipitate proteins. After centrifugation, the supernatant was collected and filtered. The concentration of the compound was detected using LC-MS (Agilent 1260-G6125, SIM mode).
(§3) Experimental groups: a vehicle control group, and a dosing group.

[5] = Mouse pharmacokinetics after intravenous administration (plasma and brain, LC-MS); format: in vivo; details: C57 mice, intravenous 5 mg/kg; for concentration at 120 min: brain after cardiac perfusion, read-out: brain drug concentration at 120 min; for half-life / AUC: plasma; for AUC: read-out: area under the curve (AUC) from 1 to 120 min
Protocol: C57 mice were administered intravenously, at a dosage concentration of 5 mg/kg in each group. Retro-orbital blood collection was performed on the mice at 1 min, 30 min, 1 h, and 2 h post-dosing. The collected blood was centrifuged at 3000 rpm for 10 min at 4 °C to obtain plasma. Acetonitrile was added at a 1:3 volume ratio of plasma: acetonitrile to precipitate proteins. After centrifugation, the supernatant was collected and filtered. The concentration of the compound was detected using LC-MS (Agilent 1260-G6125, SIM mode). In addition, 2 h after drug injection, the mice were subjected to cardiac perfusion and then their brains were harvested. Following tissue homogenization and centrifugation, the supernatant was collected. Acetonitrile was added at a 1:3 volume ratio of supernatant: acetonitrile to precipitate proteins. After centrifugation, the supernatant was collected and filtered. The concentration of the compound was detected using LC-MS (Agilent 1260-G6125, SIM mode).
as §3

NLRP3 [6] = molecular target: T2, NLRP3 (Homo sapiens, UniProt Q96P20); assay: Inhibition curves (IC50) of canonical NLRP3 activation (LPS+Nig) in THP-1 cells, IL-1β release; format: cell-based; design: host or cells: THP-1 human acute monocytic leukemia cell line, PMA-differentiated; details: THP-1 cell LPS+Nig activation model
T2 sequence (Q96P20 whole entry): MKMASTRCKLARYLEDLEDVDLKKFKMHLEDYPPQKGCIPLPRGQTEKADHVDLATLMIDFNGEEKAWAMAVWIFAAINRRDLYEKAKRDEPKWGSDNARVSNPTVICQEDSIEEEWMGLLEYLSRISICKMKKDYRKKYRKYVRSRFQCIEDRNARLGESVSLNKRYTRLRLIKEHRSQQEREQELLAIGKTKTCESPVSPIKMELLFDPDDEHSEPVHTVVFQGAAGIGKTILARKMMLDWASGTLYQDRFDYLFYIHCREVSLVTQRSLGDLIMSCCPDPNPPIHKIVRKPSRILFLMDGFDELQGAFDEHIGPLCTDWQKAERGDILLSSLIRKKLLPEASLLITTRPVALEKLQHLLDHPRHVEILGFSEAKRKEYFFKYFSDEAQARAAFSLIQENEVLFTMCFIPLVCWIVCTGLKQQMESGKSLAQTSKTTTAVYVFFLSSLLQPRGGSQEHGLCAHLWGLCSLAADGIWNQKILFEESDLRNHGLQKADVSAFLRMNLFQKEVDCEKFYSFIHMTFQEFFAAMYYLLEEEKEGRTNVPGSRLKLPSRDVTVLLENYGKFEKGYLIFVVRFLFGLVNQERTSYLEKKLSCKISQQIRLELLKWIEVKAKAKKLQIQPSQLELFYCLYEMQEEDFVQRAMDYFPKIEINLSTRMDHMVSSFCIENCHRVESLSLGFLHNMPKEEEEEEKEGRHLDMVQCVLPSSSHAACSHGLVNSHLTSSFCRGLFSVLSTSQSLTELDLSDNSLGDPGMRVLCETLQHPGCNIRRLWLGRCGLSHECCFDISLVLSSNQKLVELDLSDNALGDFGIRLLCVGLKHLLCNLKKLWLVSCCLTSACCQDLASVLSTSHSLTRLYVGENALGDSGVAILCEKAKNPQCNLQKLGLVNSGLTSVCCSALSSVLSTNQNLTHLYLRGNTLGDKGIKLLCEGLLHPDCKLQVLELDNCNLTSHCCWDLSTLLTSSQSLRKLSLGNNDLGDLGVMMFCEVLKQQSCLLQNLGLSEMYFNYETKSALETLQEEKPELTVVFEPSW
Protocol: Nig was purchased from Shanghai Yuanye Bio-Technology Co., Ltd., Cat. No.: S45490.
The cells were incubated overnight.
as §2

NLRP3 [7] = molecular target: T2, NLRP3; assay: Inhibition of canonical NLRP3 activation (LPS+Nig) in PMA-differentiated THP-1 cells, IL-1β release, single concentration; details: 1 µM compound, FIG. 6 legend
Protocol: THP-1 cells were plated in a 96-well plate at a density of 1.0×10^6 cells/mL, with 100 µL per well. Subsequently, PMA-induced differentiation and cell resting were performed, followed by activation of NLRP3 by LPS+Nig.
Experimental groups: a negative control group, an LPS-alone incubation control group, an LPS+Nig positive control group, and a 1 µM example compound experimental group.
100 ng/mL PMA was added at the same time as THP-1 cells were plated. After incubation for 24 h, the cells were washed three times with PBS, and then the culture medium was changed and the cells were allowed to rest for 24 h. Then the culture medium was completely replaced with medium containing 1 µg/mL LPS. The cells were incubated overnight. On the next day, the wells to which LPS was added completely received culture medium, and then the wells were incubated with specified example compounds for 1 h.
In this experimental example, effectively inhibiting IL-1β release means that the release amount in each group is reduced by 50% or more compared with that of the positive control.

NLRP3 [8] = molecular target: T2, NLRP3; assay: Inhibition curves (IC50) of canonical NLRP3 activation in healthy human whole blood, IL-1β release; format: cell-based; details: LPS+1 mM ATP canonical activation model
Protocol: 10 mL of human whole blood was collected intravenously aseptically, and plated into a 96-well plate, with 198 µL per well. Then, 2 µL of 100× gradient dilutions of the example compounds at specified concentrations were added, immediately followed by the addition of 10 µL of 21 µg/mL LPS gradient dilution. 3 h later, nigericin with a working concentration of 5 µM or 1 mM ATP was added. After stimulation for 1 h, the whole blood was collected and centrifuged to collect the supernatant. IL-1β in the sample supernatant was detected by ELISA method.
Experimental groups: a negative control group, an LPS-alone incubation control group, an LPS+Nig/ATP positive control group, and a 1 µM example compound experimental group.
10 mL of human whole blood was collected intravenously aseptically. The anticoagulant heparin sodium was added preemptively into a 50 mL centrifuge tube. The collected whole blood was directly plated in a 96-well plate, with 198 µL per well. […] IL-1β in the sample supernatant was detected by ELISA method.
Therefore, the relative change in the amount of IL-1β release may directly reflect NLRP3 inhibitory effect. The inhibitory effect of the compounds varies with different concentrations, and based on this, an inhibition curve can be constructed, and the inhibitory effect of the compounds were assessed by IC50.

T1 sequence (Q8R4B8 whole entry): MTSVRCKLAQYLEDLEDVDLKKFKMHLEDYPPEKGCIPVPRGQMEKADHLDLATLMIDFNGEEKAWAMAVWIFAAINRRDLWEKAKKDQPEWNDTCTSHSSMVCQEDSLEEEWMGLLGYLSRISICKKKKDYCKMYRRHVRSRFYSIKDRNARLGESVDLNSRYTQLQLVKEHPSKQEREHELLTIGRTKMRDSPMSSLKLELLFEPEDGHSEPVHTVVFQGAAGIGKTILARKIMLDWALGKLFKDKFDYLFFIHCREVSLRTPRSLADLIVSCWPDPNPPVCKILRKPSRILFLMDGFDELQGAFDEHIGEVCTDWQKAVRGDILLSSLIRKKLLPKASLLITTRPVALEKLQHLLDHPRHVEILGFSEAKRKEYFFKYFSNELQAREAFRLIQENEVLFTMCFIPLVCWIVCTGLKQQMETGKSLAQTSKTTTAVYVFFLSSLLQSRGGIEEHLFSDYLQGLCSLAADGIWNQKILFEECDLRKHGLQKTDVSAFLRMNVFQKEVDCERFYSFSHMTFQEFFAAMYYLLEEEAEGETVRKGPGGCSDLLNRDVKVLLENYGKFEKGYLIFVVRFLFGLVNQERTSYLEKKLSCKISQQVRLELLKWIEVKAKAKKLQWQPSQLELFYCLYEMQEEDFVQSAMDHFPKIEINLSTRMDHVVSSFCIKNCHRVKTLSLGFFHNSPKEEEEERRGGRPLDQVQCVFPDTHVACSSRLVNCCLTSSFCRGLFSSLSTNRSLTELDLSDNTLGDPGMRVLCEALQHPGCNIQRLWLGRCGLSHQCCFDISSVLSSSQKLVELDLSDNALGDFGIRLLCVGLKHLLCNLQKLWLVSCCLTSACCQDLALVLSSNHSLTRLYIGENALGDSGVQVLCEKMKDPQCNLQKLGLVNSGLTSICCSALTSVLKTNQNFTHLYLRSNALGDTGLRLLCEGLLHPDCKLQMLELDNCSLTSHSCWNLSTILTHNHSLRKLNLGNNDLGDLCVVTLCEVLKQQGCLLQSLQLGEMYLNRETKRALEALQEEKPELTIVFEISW

Row | SMILES | IC50 (NLRP3 [1]) [nM] | inhibition at 1 µM (NLRP3 [2]) [%] | inhibition at 10 µM (NLRP3 [3]) [%] | concentration at 120 min [5] [ng/mL] | half-life [5] [h] | AUC [5] [ng·h/mL] | other results
1 | CN(C)Cc1cccc(S(=O)(=O)NC(=O)Nc2c3c(cc4c2CCC4)CCC3)c1Cl [Example 1, 2-chloro-3-((dimethylamino)methyl)-N-((1,2,3,5,6,7-hexahydro-s-indacen-4-yl)carbamoyl)benzenesulfonamide] | 64.6 | > 80 |  |  |  |  | 
2 | Cc1c(CN(C)C)cccc1S(=O)(=O)NC(=O)Nc1c2c(cc3c1CCC3)CCC2 [Example 26, 3-((dimethylamino)methyl)-N-((1,2,3,5,6,7-hexahydro-s-indacen-4-yl)carbamoyl)-2-methylbenzenesulfonamide] | 81.6 | > 80 | ≥ 70 |  |  |  | 
3 | CC(C)(O)c1coc(S(=O)(=O)NC(=O)Nc2c3c(cc4c2CCC4)CCC3)c1 [MCC950, reference compound] |  |  |  | 0 | 1.28 | 29600 | half-life [4]: 0.267 h; AUC ([4]; read-out: AUC from 1 to 1440 min): 4380 ng·h/mL
4 | CN(C)C1CCOc2c1cccc2S(=O)(=O)NC(=O)Nc1c2c(cc3c1CCC3)CCC2 (stereo not shown) [Example 32, 4-(dimethylamino)-N-((1,2,3,5,6,7-hexahydro-s-indacen-4-yl)carbamoyl)chromane-8-sulfonamide] | 390 |  |  |  |  |  | 
5 | Cc1c(S(=O)(=O)NC(=O)Nc2c3c(cc4c2CCC4)CCC3)ccc(O)c1CN(C)C [Example 30, 3-((dimethylamino)methyl)-N-((1,2,3,5,6,7-hexahydro-s-indacen-4-yl)carbamoyl)-4-hydroxy-2-methylbenzenesulfonamide] | 144 |  |  |  |  |  | IC50 (NLRP3 [6]): 36.7 nM
6 | CN(C)Cc1cccc(S(=O)(=O)NC(=O)Nc2c3c(cc4c2CCC4)CCC3)c1O [Example 27, 3-((dimethylamino)methyl)-N-((1,2,3,5,6,7-hexahydro-s-indacen-4-yl)carbamoyl)-2-hydroxybenzenesulfonamide] | 79.6 | > 80 |  | 96 | 2.88 | 47300 | reduction in release amount compared with that of the positive control minus the LPS-alone control (NLRP3 [7]): ≥ 75%; IC50 (NLRP3 [8]): 55800 nM
7 | CN(C)Cc1c(O)ccc(S(=O)(=O)NC(=O)Nc2c3c(cc4c2CCC4)CCC3)c1F [Example 31, 3-((dimethylamino)methyl)-2-fluoro-N-((1,2,3,5,6,7-hexahydro-s-indacen-4-yl)carbamoyl)-4-hydroxybenzenesulfonamide] | 203 |  |  |  |  |  | 
8 | CN(C)Cc1cc(S(=O)(=O)NC(=O)Nc2c3c(cc4c2CCC4)CCC3)c(F)cc1N [Example 22, 4-amino-5-((dimethylamino)methyl)-2-fluoro-N-((1,2,3,5,6,7-hexahydros-indacen-4-yl)carbamoyl)benzenesulfonamide] | 127 | > 80 | ≥ 70 |  |  |  | 
9 | CN(C)Cc1cc(S(=O)(=O)NC(=O)Nc2c3c(cc4c2CCC4)CCC3)cc(F)c1O [Example 17, 3-((dimethylamino)methyl)-5-fluoro-N-((1,2,3,5,6,7-hexahydro-s-indacen-4-yl)carbamoyl)-4-hydroxybenzenesulfonamide] | 194 | > 80 | ≥ 70 | 184 | 3.85 | 15500 | reduction in release amount compared with that of the positive control minus the LPS-alone control (NLRP3 [7]): ≥ 75%
